Experiments:
SETFA (giant foxtail) = assay: Pre-plant incorporated (PPI) herbicidal activity, warm season; format: in vivo, Setaria faberi; details: PPI application
Outline: (§1)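 Spray-treated, thoroughly mixed cover soil was laid over seeds; untreated soil served as control cover. Day/night temperatures: 30/21° C warm season, 18/13° C cool season. Efficacy recorded ~14 days after planting as percent inhibition.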

SORVU (shattercane) = assay: as above; format: in vivo, Sorghum vulgare; details: PPI application
Outline: as §1

[1] = system: BRAPP (broadleaf signalgrass); assay: as above; format: in vivo, Brachiaria platyphylla; details: PPI application
Outline: as §1

[2] = system: GALAP (catchweed bedstraw); assay: Pre-plant incorporated (PPI) herbicidal activity, cool season; format: in vivo, Galium aparine; details: weed, PPI application
Outline: as §1

SINAR (wild mustard) = assay: as above; format: in vivo, Sinapis arvensis; details: weed, PPI application
Outline: as §1

SASKR (russian thistle) = assay: as above; format: in vivo, Salsola kali; details: weed, PPI application
Outline: as §1

STEME (common chickweed) = assay: as above; format: in vivo, Stellaria media; details: weed, PPI application
Outline: as §1

[3] = system: LAMPU (purple deadnettle); assay: as above; format: in vivo, Lamium purpureum; details: weed, PPI application
Outline: as §1

SETVI (green foxtail) = assay: as above; format: in vivo, Setaria viridis; details: weed, PPI application
Outline: as §1

[4] = system: AGRRE (quackgrass (seedling)); assay: as above; format: in vivo, Elymus repens; details: weed, PPI application
Outline: as §1

corn (ZEAMX) = assay: Selectivity test, PPI, warm season crop; format: in vivo, Zea mays; details: PPI application
Outline: (§2)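 Pre-plant incorporated: compound in organic solvent sprayed onto cover soil, mixed and laid over seeds; untreated soil for controls. Greenhouse after treatment: warm season 30/21° C., cool season 18/13° C. day/night. Percent inhibition versus untreated plants scored about 14 days after planting.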

wheat (TRZAW) = assay: Selectivity test, PPI, cool season crop; format: in vivo, Triticum aestivum; details: PPI application
Outline: as §2

barley (HORVX) = assay: Selectivity test, PPI, cool season crop; format: in vivo, Hordeunm vulgare; details: PPI application
Outline: as §2

With `CCN(CC)C(=O)n1cnc(S(=O)(=O)C(F)(F)SCc2ccccc2)n1` [Example 10] the “Percent inhibition SETFA” value (SETFA (giant foxtail); 10 g/ha) was 0%, the “Percent inhibition SETFA” value (SETFA (giant foxtail); 30 g/ha) was 60% and the “Percent inhibition SETFA” value (SETFA (giant foxtail); 100 g/ha) was 80%. For the same compound, the “Percent inhibition SETFA” value (SETFA (giant foxtail); 300 g/ha) was 100%, the “Percent inhibition SETFA” value (SETFA (giant foxtail); 900 g/ha) was 100% and the “Percent inhibition SORVU” value (SORVU (shattercane); 10 g/ha) was 0%. The “Percent inhibition SORVU” value (SORVU (shattercane); 30 g/ha) was 0%, the “Percent inhibition SORVU” value (SORVU (shattercane); 100 g/ha) was 20% and the “Percent inhibition SORVU” value (SORVU (shattercane); 300 g/ha) was 95%. The “Percent inhibition SORVU” value (SORVU (shattercane); 900 g/ha) was 100%, the “Percent inhibition BRAPP” value ([1]; 10 g/ha) was 0% and the “Percent inhibition BRAPP” value ([1]; 30 g/ha) was 20%. For the same compound, the “Percent inhibition BRAPP” value ([1]; 100 g/ha) was 70%, the “Percent inhibition BRAPP” value ([1]; 300 g/ha) was 100% and the “Percent inhibition BRAPP” value ([1]; 900 g/ha) was 100%. For the same compound, the “Percent inhibition GALAP” value ([2]; 10 g/ha) was 0%, the “Percent inhibition GALAP” value ([2]; 30 g/ha) was 0% and the “Percent inhibition GALAP” value ([2]; 100 g/ha) was 80%. The “Percent inhibition GALAP” value ([2]; 300 g/ha) was 50%, the “Percent inhibition GALAP” value ([2]; 900 g/ha) was 100% and the “Percent inhibition SINAR” value (SINAR (wild mustard); 10 g/ha) was 0%. The “Percent inhibition SINAR” value (SINAR (wild mustard); 30 g/ha) was 90%, the “Percent inhibition SINAR” value (SINAR (wild mustard); 100 g/ha) was 100% and the “Percent inhibition SINAR” value (SINAR (wild mustard); 300 g/ha) was 80%. For the same compound, the “Percent inhibition SINAR” value (SINAR (wild mustard); 900 g/ha) was 100%, the “Percent inhibition SASKR” value (SASKR (russian thistle); 10 g/ha) was 10% and the “Percent inhibition SASKR” value (SASKR (russian thistle); 30 g/ha) was 20%. The “Percent inhibition SASKR” value (SASKR (russian thistle); 100 g/ha) was 90%, the “Percent inhibition SASKR” value (SASKR (russian thistle); 300 g/ha) was 100% and the “Percent inhibition SASKR” value (SASKR (russian thistle); 900 g/ha) was 100%. For the same compound, the “Percent inhibition STEME” value (STEME (common chickweed); 10 g/ha) was 0%, the “Percent inhibition STEME” value (STEME (common chickweed); 30 g/ha) was 0% and the “Percent inhibition STEME” value (STEME (common chickweed); 100 g/ha) was 0%. For the same compound, the “Percent inhibition STEME” value (STEME (common chickweed); 300 g/ha) was 0%, the “Percent inhibition STEME” value (STEME (common chickweed); 900 g/ha) was 90% and the “Percent inhibition LAMPU” value ([3]; 10 g/ha) was 0%. The “Percent inhibition LAMPU” value ([3]; 30 g/ha) was 0%, the “Percent inhibition LAMPU” value ([3]; 300 g/ha) was 0% and the “Percent inhibition LAMPU” value ([3]; 900 g/ha) was 50%. For the same compound, the “Percent inhibition SETVI” value (SETVI (green foxtail); 30 g/ha) was 0%, the “Percent inhibition SETVI” value (SETVI (green foxtail); 100 g/ha) was 90% and the “Percent inhibition SETVI” value (SETVI (green foxtail); 300 g/ha) was 100%. For the same compound, the “Percent inhibition SETVI” value (SETVI (green foxtail); 900 g/ha) was 100%, the “Percent inhibition AGRRE” value ([4]; 10 g/ha) was 0% and the “Percent inhibition AGRRE” value ([4]; 30 g/ha) was 0%. The “Percent inhibition AGRRE” value ([4]; 100 g/ha) was 0%, the “Percent inhibition AGRRE” value ([4]; 300 g/ha) was 0% and the “Percent inhibition AGRRE” value ([4]; 900 g/ha) was 50%. For the same compound, the “Percent inhibition ZEAMX” value (corn (ZEAMX); 10 g/ha) was 0%, the “Percent inhibition ZEAMX” value (corn (ZEAMX); 30 g/ha) was 0% and the “Percent inhibition ZEAMX” value (corn (ZEAMX); 100 g/ha) was 0%. For the same compound, the “Percent inhibition ZEAMX” value (corn (ZEAMX); 300 g/ha) was 10%, the “Percent inhibition ZEAMX” value (corn (ZEAMX); 900 g/ha) was 40% and the “Percent inhibition TRZAW” value (wheat (TRZAW); 10 g/ha) was 0%. The “Percent inhibition TRZAW” value (wheat (TRZAW); 30 g/ha) was 0%, the “Percent inhibition TRZAW” value (wheat (TRZAW); 100 g/ha) was 0% and the “Percent inhibition TRZAW” value (wheat (TRZAW); 300 g/ha) was 10%. The “Percent inhibition TRZAW” value (wheat (TRZAW); 900 g/ha) was 20%, the “Percent inhibition HORVX” value (barley (HORVX); 10 g/ha) was 0% and the “Percent inhibition HORVX” value (barley (HORVX); 30 g/ha) was 0%. The “Percent inhibition HORVX” value (barley (HORVX); 100 g/ha) was 0%, the “Percent inhibition HORVX” value (barley (HORVX); 300 g/ha) was 0% and the “Percent inhibition HORVX” value (barley (HORVX); 900 g/ha) was 20%.

— patent US6461997B1, “Triazole sulfones having herbicidal activity” (Monsanto Technology LLC, priority 1999, dated 2002)
